Test results taken from patent US20030045515A1, “Combination medicament for treatment of neoplastic diseases” (priority 2001, published 2003).

Legend:
Format in all cases: in vivo, NMRI nu/nu female mice
[1] = test system: NYH cells (small cell lung cancer); assay: Tumour growth in nude mice inoculated with NYH cells; settings: NYH tumours, 14 days
Procedure: (§1) The experiments were conducted with NMRI nu/nu female mice (M&B, Ry, Denmark) kept under semi-sterile conditions. The mice were 6 weeks old on arrival, and they were allowed to acclimatise for approximately 3 weeks before the experiments were initiated. The bedding was autoclaved at 121° C. for 20 minutes, the food was sterilised by irradiation, and the drinking water was filtered through a 0.2 μm filter. All handling of the mice was done in laminar flow benches.
Each experiment employed 40-60 mice which were inoculated in both flanks and left for the tumours to develop. Following that, the mice were divided into groups, each containing 10 mice and thus 18-20 tumors, according to the size of the tumour, i.e. large, medium or small. Unless stated otherwise all doses have been given daily.
(§2) The tumours were measured using digital callipers before treatment start (=baseline), twice weekly for the duration of the study, and at the end of the study. Tumour area (A) was calculated as the product of the two measured perpendicular diameters; A=d1×d2. For mice with only one tumour, the area of this tumour was calculated and used in the statistical analysis. For mice with two tumours, the average of the two tumour areas was calculated and used in the statistical analysis.
For each animal, an individual curve of the tumour areas observed during the study was plotted against time. The trend was an increasing growth rate of the tumours. In order to ensure an approximate linear correspondence between tumour data and time, the observations were transformed by taking the square root of the tumour areas, corresponding to tumour size in one dimension. As a summary measure of the repeated measurements of tumour areas during the study (tumour growth rate), the estimated slope of the individual curves of the square root transformed curves was used [Matthews, Br. Med. J., 300, 230-235, 1990]. The slope should be interpreted as a measure of the tumour growth rate and was estimated using linear regression analysis by time on the observations during the study. Within each group, the mean of the tumour growth rate was calculated.
The NYH cell line originates from a patient with small cell lung cancer. The cell line was obtained from Rigshospitalet, Copenhagen, Denmark.
The mice were inoculated with 1×10^7 NYH cells in 0.2 ml in each flank, and the tumours were left to grow for approximately 4 days. The duration of the dosing was 14 days.

[2] = test system: HT 1080 cells (human fibrosarcoma); assay: Tumour growth in nude mice inoculated with HT 1080 cells; settings: HT 1080 tumours, 14 days
Procedure: The experiments were conducted with NMRI nu/nu female mice (M&B, Ry, Denmark) kept under semi-sterile conditions. The mice were 6 weeks old on arrival, and they were allowed to acclimatise for approximately 3 weeks before the experiments were initiated. The bedding was autoclaved at 121° C. for 20 minutes, the food was sterilised by irradiation, and the drinking water was filtered through a 0.2 μm filter. All handling of the mice was done in laminar flow benches. Each experiment employed 40-60 mice which were inoculated in both flanks and left for the tumours to develop. Following that, the mice were divided into groups, each containing 10 mice and thus 18-20 tumors, according to the size of the tumour, i.e. large, medium or small. Unless stated otherwise all doses have been given daily. The tumours were measured using digital callipers before treatment start (=baseline), twice weekly for the duration of the study, and at the end of the study. Tumour area (A) was calculated as the product of the two measured perpendicular diameters; […] For mice with only one tumour, the area of this tumour was calculated and used in the statistical analysis. For mice with two tumours, the average of the two tumour areas was calculated and used in the statistical analysis. For each animal, an individual curve of the tumour areas observed during the study was plotted against time. The trend was an increasing growth rate of the tumours. In order to ensure an approximate linear correspondence between tumour data and time, the observations were transformed by taking the square root of the tumour areas, corresponding to tumour size in one dimension. As a summary measure of the repeated measurements of tumour areas during the study (tumour growth rate), the estimated slope of the individual curves of the square root transformed curves was used [Matthews, Br. Med. […] The slope should be interpreted as a measure of the tumour growth rate and was estimated using linear regression analysis by time on the observations during the study. Within each group, the mean of the tumour growth rate was calculated. The HT 1080 cell line originates from a patient with human fibrosarcoma, and it was obtained from ATCC. The mice were inoculated with 2×10^6 HT 1080 cells in 0.2 ml in each flank, and the tumours were left to grow for approximately 4 days.

[3] = test system: Colo 320 DM cells (human colon cancer); assay: Tumour growth in nude mice inoculated with Colo 320 DM cells; settings: Colo 320 DM tumours, 21 days, control 0.55
Procedure: as §1
Each experiment employed 40-60 mice which were inoculated in both flanks and left for the tumours to develop. Following that, the mice were divided into groups, each containing 10 mice and thus 18-20 tumors, according to the size of the tumour, i.e. large, medium or small. […]
as §2
For each animal, an individual curve of the tumour areas observed during the study was plotted against time. […] Within each group, the mean of the tumour growth rate was calculated. […]

For `N.N.[Cl][Pt][Cl]` [Cisplatin], the Mean increment/day ([1]; cisplatin 5 mg/kg i.p. once weekly, control 0.90) was 0.32 mm/day.
With `N#CNC(=Nc1ccncc1)NCCCCCCOc1ccc(Cl)cc1` [Compound A, N-cyano-N′-(6-(4-chlorophenoxy)hexyl)-N″(4-pyridyl)guanidine] the Mean increment/day ([2]; compound A 50 mg/kg p.o. daily, TNP-470 experiment, control 0.73) was 0.14 mm/day, the Mean increment/day ([2]; compound A 50 mg/kg p.o. daily, etoposide experiment, control 0.45) was 0.21 mm/day and the Mean increment/day ([2]; compound A 50 mg/kg p.o. daily, paclitaxel experiment, control 0.67) was 0.30 mm/day. For the same molecule, the Mean increment/day ([2]; compound A 50 mg/kg p.o. daily, seocalcitol experiment, control 0.98) was 0.24 mm/day, the Mean increment/day ([3]; compound A 50 mg/kg p.o. daily) was 0.22 mm/day and the Mean increment/day ([1]; compound A 15 mg/kg p.o. daily, cisplatin experiment, control 0.90) was 0.02 mm/day. For the same molecule, the Mean increment/day ([1]; compound A 15 mg/kg p.o. daily, cyclophosphamide experiment, control 0.61) was 0.26 mm/day and the Mean increment/day ([1]; compound A 15 mg/kg p.o. daily, etoposide experiment, control 0.67) was 0.34 mm/day.
Molecule `O=P1(N(CCCl)CCCl)NCCCO1` (centres unmarked) [Cyclophosphamide] has a Mean increment/day ([1]; cyclophosphamide 7 mg/kg p.o. daily, control 0.61) of 0.40 mm/day.
`COc1cc([C@@H]2c3cc4c(cc3[C@@H](O[C@@H]3O[C@@H]5CO[C@@H](C)O[C@H]5[C@H](O)[C@H]3O)[C@H]3COC(=O)[C@H]23)OCO4)cc(OC)c1O` [Etoposide] showed a Mean increment/day ([2]; etoposide 10 mg/kg p.o. daily, control 0.45) of -0.01 mm/day and a Mean increment/day ([1]; etoposide 10 mg/kg p.o. daily, control 0.67) of 0.41 mm/day.
`CC(=O)O[C@H]1C(=O)[C@@]2(C)[C@H]([C@H](OC(=O)c3ccccc3)[C@]3(O)C[C@H](OC(=O)[C@H](O)[C@@H](NC(=O)c4ccccc4)c4ccccc4)C(C)=C1C3(C)C)[C@]1(OC(C)=O)CO[C@@H]1C[C@@H]2O` [Paclitaxel] was tested, and the Mean increment/day ([2]; paclitaxel 1 mg/kg s.c. daily, control 0.67) was 0.39 mm/day and the Mean increment/day ([2]; paclitaxel 2 mg/kg s.c. daily, control 0.67) was 0.15 mm/day.
`C=C1/C(=C\C=C2/CCC[C@]3(C)[C@@H]([C@H](C)/C=C/C=C/C(O)(CC)CC)CC[C@@H]23)C[C@@H](O)C[C@@H]1O` [Seocalcitol] gave a Mean increment/day ([2]; seocalcitol 2 μg/kg p.o. daily, control 0.98) of 0.95 mm/day.
For `CO[C@@H]1[C@H](OC(=O)NC(=O)CCl)CC[C@]2(CO2)[C@H]1[C@@]1(C)O[C@@H]1CC=C(C)C` [TNP-470], the Mean increment/day ([2]; TNP-470 9 mg/kg s.c. daily, control 0.73) was 0.51 mm/day and the Mean increment/day ([3]; TNP-470 9 mg/kg s.c. daily) was 0.29 mm/day.
